Data from patent publication US20230052424A1, “Peramivir Dry Powder Inhaler and Method of Preparing the Same” (GUANGZHOU NUCIEN PHARMACEUTICAL CO., LTD, priority 2020, published 2023).
Marks after values point to notes of the source that are not given here.

Key:
[1] = system: Influenza A/PR/8/34 virus; test: In vivo protection of mice infected with influenza virus (mortality, survival time); set-up: species or system Balb/c mice; settings: 10 mg/kg intragastric, once per day 5 days from 2 h post-infection, 10 mice, 15 days observed
Method: 80 SPF Balb/c mice, half male and half female, weighing 16.9˜22.6 g each, were stochastically divided into 8 groups: a normal control group, a virus model group, an oseltamivir phosphate capsule group (Tamiflu) (10 mg/kg), a peramivir intravenous injection group (10 mg/kg), and peramivir dry powder inhaler (example 3) groups I-IV (0.1, 0.3, 0.9, 2.7 mg/kg), ten mice in each group. […] Prior to daily administration, the peramivir intravenous injection was prepared into a 1.0 mg/mL liquor with 0.9% sodium chloride injection, and the oseltamivir phosphate capsule was prepared into a 0.5 mg/mL liquor with pure water. The mice in each group were all administered at 2 h post-modeling of the intranasal virus infection, wherein the mice in each peramivir dry powder inhaler group were administered with a corresponding dosage of peramivir dry powder inhaler, the mice in the peramivir intravenous injection group were intravenously injected with the peramivir liquid as per a dosage of 10 mL/kg, the oseltamivir phosphate capsule group were intragastrically administered with oseltamivir phosphate liquid as per a dosage of 20 mL/kg, and the normal control group and the model control group were sprayed with air of the same volume via their trachea. The mice were administered once per day, 5 days in succession. The first day (D1) of virus infection was counted from the next day of the intranasal virus inflection modeling.

[2] = system: Influenza A/PR/8/34 virus; test: Viral titer of mouse lung tissue (hemagglutination titer); format: in vivo, Balb/c mice; settings: 10 mg/kg intragastric once per day, lung suspension, logarithmic value of maximum dilution factor
Method: 84 SPF Balb/c mice, half male and half female, weighing 21.2˜26.6 g each, were stochastically divided into 7 groups: a normal control group, a virus model group, an oseltamivir phosphate capsule group (Tamiflu) (10 mg/kg), a peramivir I.V. group (10 mg/kg), and peramivir dry powder inhaler (example 3) groups I-III (0.1, 0.3, 0.9 mg/kg), twelve mice in each group (in each group, F04˜F06 and M04˜M06 were subjected to 24 h hemagglutination titer measurement, and F01˜F03 and M1˜M03 were subjected to 48 h hemagglutination titer measurement). […] Prior to daily administration, the peramivir I.V. injection was prepared into a 1.0 mg/mL liquor with 0.9% sodium chloride injection, and the oseltamivir phosphate capsule was prepared into a 0.5 mg/mL liquor with pure water. The mice in each group were all administered at 2 h post-modeling of the intranasal virus infection, wherein the mice in each peramivir DPI group were administered with a corresponding dosage of peramivir dry powder inhaler, the mice in the peramivir intravenous injection group were intravenously injected with the peramivir liquid as per a dosage of 10 mL/kg, the oseltamivir phosphate capsule group were intragastrically administered with oseltamivir phosphate liquid as per a dosage of 20 mL/kg, and the normal control group and the model control group were sprayed with air of the same volume via their trachea. The mice were administered once per day, 2 days in succession.
6 mice, half male and half female, were stochastically selected from each group at 24 h and 48 h post-administration, respectively. The mice were euthanized by cervical dislocation and their lungs were procured through dissection and then put in a homogenizer. 0.9% sodium chloride injection was added according to a ratio of the lung weight (g) to 0.9% sodium chloride injection (mL)=1:9, followed by grinding the homogenates into mouse lung suspensions. The mouse lung suspensions were subjected to centrifugation at 2500 rpm for 20 min under a 4° C. environment, with the supernatant being acquired for future use. Except the first column, 50 μL PBS (Phosphate Buffer Saline) was added into hemagglutination plate wells. 100 μL to-be-tested supernatant was added into each well in the first column, respectively, followed by adding with serial dilution till the wells in the 11th column, and then 50 μL 0.5% chicken erythrocyte was added into each well, respectively, followed by setting for 40 min; the hemagglutination plate was then tilted to observe whether the erythrocyte flew in a teardrop shape. […]

[3] = listed as oseltamivir phosphate

In the case of `CCOC(=O)C1=C[C@@H](OC(CC)CC)[C@H](NC(C)=O)[C@@H](N)C1` [Oseltamivir phosphate], the “Average number of survival days” value [1] is reported as 11.3 ± 4.8 days, the “Mortality rate (%)” value [1] is reported as 40** % and the Number of deaths [1] is reported as 4. For the same molecule, the Number of survivals [1] was 6, the “Average number of survival days” value [1, 3] was “significantly prolonged” and the “Mortality rate (%)” value [1, 3] was “significantly decreased”. The hemagglutination titer ([2]; 24 h, n = 6) was 2.5 ± 0.5, the hemagglutination titer ([2]; 24 h, n = 6, listed as oseltamivir phosphate) was “notably decreased” and the hemagglutination titer ([2]; 48 h, n = 6) was 2.2 ± 0.8. The hemagglutination titer ([2]; 48 h, n = 6, listed as oseltamivir phosphate) was “notably decreased”.
